The structures appear in SMILES notation. Entries after “also recorded” stand apart in the source; their conditions may differ. Marks after values point to notes of the source that are not given here. Where only a bound is given, the exact number is not on record here.

One series deals with csNOX5 dehydrogenase. The series can be described thus: Intact protein mass spectrometry of csNOX5 dehydrogenase. The conditions noted are these: intact protein ESI-qTOF-HRMS. It counts as binding, Cylindrospermum stagnale. The procedure: Approximately 1 mg mL^-1 protein was incubated with 300 μM FAD and 1 mM 9a at 4 °C for 1 h. A negative control reaction was performed by adding an equal volume of DMSO. Protein was denatured by adding 1% (v/v) formic acid. Chromatographic separation and mass spectrometry analysis were carried out as previously reported.[10] Analyses were carried out by ESI-qTOF-HRMS on an […] qTOF system (Sciex) embedding a Twin Sprayer ESI probe and coupled with an ExcionLC system (Sciex) controlled by SciexOS software v. 3.0.0. The injection volume was 10 μL (10 μg), and chromatographic separation was carried out with a bioZen WidePore C4 column (a 100 mm length, a 2.1 mm diameter, and a 2.6 μm particle size; Phenomenex).

The test system of series [1] is dehydrogenase domain of csNOX5. The series can be described thus: NADPH depletion assay on csNOX5 dehydrogenase domain. It counts as biochemical, Cylindrospermum stagnale. The conditions noted are these: 10 μM inhibitor; 1 μM purified protein, 250 μM NADPH. The method, then: A series of derivatives were synthesized and tested at 10 μM against the dehydrogenase domain of NOX5 from Cylindrospermum stagnale (C. stagnale, CsNOX5; Figure 2B).
The NADPH depletion assay for IC50 determinations was performed as described[10] with modifications for covalent inhibitors, which require longer incubation times. Briefly, the catalytic activity was measured by monitoring the absorbance at 340 nm with a Cary 100 UV–vis spectrophotometer (Varian). A 1 μM portion of purified protein was added in a final volume of 130 μL of 50 mM HEPES pH 7.5 and supplemented with 300 μM FAD. Inhibitors were added at varying concentrations and incubated for 1 h at 25 °C.

The test system of a further series is monocytic U937. On the set-up: method as in PMID 37884805. As to conditions: cited from earlier work.
The test system of series [2] is dehydrogenase domain of csNOX5. The series can be described thus: NADPH depletion assay on csNOX5 dehydrogenase domain. The format is biochemical, Cylindrospermum stagnale. As to conditions: 100 μM inhibitor; 1 μM purified protein, 250 μM NADPH.
Series [3] has as its system BV2 cells. The series can be described thus: MTT viability assay in BV2 cells. The format is cell-based, murine. The conditions noted are these: 10 μM, LPS/IFN-γ stimulation, 48 h. On the technique in general: Formazan colour is commonly taken as a measure of viable cells.
Method: BV2 murine microglial cells were cultured in DMEM supplemented with 10% heat-inactivated FBS, 100 IU/mL penicillin G, 100 mg/mL streptomycin, and 2.5 mg/mL amphotericin B and grown at 37 °C in 5% CO2 and a humidified atmosphere. […] After 30 min, LPS 100 ng/mL and IFN-γ 20 ng/mL were added to the medium for an additional 48 h.
Cell viability was determined by the MTT assay. Briefly, MTT (dissolved in PBS with a final concentration of 0.5 mg/mL) was added to the medium culture. After 2 h of incubation, the cells were mixed with DMSO and shaken for 10 min. Finally, the absorption of the samples was read by regulating the 570 nm filter as the main wavelength and the 630 nm filter as the referenced wavelength. The blank was subtracted from all samples to obtain pure cellular absorption. Results are expressed as the percentage of cell survival, taking 100% of the cells treated with the vehicle.
The next series concerns Purified MAOA. As to conditions: read-out: IC50 Purified MAOA; cited from earlier work.
In series [4] the test system is BV2 cells. The series can be described thus: ROS detection with CellROX Deep Red in BV2 cells. As to conditions: 10 μM, LPS/IFN-γ stimulation, 48 h. It counts as cell-based, murine. The procedure:
BV2 murine microglial cells were cultured in DMEM supplemented with 10% heat-inactivated FBS, 100 IU/mL penicillin G, […] streptomycin, and […] amphotericin B and grown at 37 °C in 5% CO2 and a humidified atmosphere. […] After 30 min, LPS 100 ng/mL and IFN-γ 20 ng/mL were added to the medium for an additional 48 h. After treatment, BV2 cells were incubated with a CellROX Deep Red reagent (cat. no. C10422) at 5 μM and incubated for 30 min at 37 °C as indicated by the manufacturer protocol. ROS levels were measured by a spectrofluorometer, taking as 100% the median fluorescence intensity of cells treated with the vehicle.

In another series the test system is Purified MAOB. The conditions noted are these: read-out: IC50 Purified MAOB; cited from earlier work.
For a further series, the target named is T1, human MAOB (Homo sapiens, UniProt P27338).
T1 construct: made in house; host or cells: Pichia pastoris
T1 sequence (P27338 1-520): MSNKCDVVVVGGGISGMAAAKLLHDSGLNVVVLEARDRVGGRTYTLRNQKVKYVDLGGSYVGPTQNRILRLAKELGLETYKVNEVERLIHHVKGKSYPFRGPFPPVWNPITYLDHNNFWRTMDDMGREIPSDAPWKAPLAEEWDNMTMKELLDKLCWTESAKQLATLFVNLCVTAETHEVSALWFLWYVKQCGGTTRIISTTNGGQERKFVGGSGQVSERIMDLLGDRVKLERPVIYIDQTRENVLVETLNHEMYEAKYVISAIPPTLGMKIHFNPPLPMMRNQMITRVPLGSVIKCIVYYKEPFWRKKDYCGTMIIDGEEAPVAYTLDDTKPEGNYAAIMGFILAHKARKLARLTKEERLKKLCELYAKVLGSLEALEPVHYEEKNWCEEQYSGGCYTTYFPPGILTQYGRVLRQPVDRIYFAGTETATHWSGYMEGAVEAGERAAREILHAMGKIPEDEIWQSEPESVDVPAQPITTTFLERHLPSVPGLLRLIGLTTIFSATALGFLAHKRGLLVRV
The series can be described thus: Purified MAOB, Amplex Red/horseradish peroxidase coupled assay. It counts as biochemical. As to conditions: 10 nM MAOB, 1 mM benzylamine. The method, then:
(§1) IC50 values on human MAOA and human MAOB were determined using the Amplex Red/horseradish peroxidase coupled assay. […] Measurements were performed using a ClarioStar plate reader (excitation 572 nm and emission 583 nm) (BMG Labtech). IC50 values were obtained by fitting the percentage of inhibition versus log(inhibitor concentration) using GraphPad software 7.0. The covalent modification of the flavin upon the reaction with the propargylamine-containing inhibitors was monitored spectrophotometrically using a diode array UV/visible spectrophotometer (Agilent Technologies). […] The cofactor covalent modification was monitored over time following the shift of the enzyme-bound flavin (peaks at 370 and 456 nm) to 410 nm (ε410 = 23,500 M^–1 cm^–1) (Figure S10).

Series [5] has as its system BV2 cells. The experiment in a line: qRT-PCR of iNOS, IL-1β and IL-6 transcripts in BV2 cells. The format is cell-based, murine. As to conditions: cells pre-stimulated with LPS/IFN-γ for 24h, then 10 µM compound for 24 h. The procedure:
BV2 murine microglial cells were cultured in DMEM supplemented with 10% heat-inactivated FBS, 100 IU/mL penicillin G, […] streptomycin, and […] amphotericin B and grown at 37 °C in 5% CO2 and a humidified atmosphere. […]
BV2 cells were lysed in a Trizol reagent for isolation of RNA. A reverse transcription reaction was performed in a thermocycler (MJMini personal thermal cycler; Biorad) using an IScript Reverse Transcription Supermix (Biorad) according to the manufacturer’s protocol, under the following conditions: incubation at 25 ° C for 5 min, reverse transcription at 42 ° C for 30 min, and inactivation at 85 ° C for 5 min. Real-time PCR (rtPCR) was carried out in an I-Cycler IQ Multicolor rtPCR detection system (Biorad) using a SsoFast EvaGreen Supermix (Biorad) according to the manufacturer’s instructions. The PCR protocol consisted of 40 cycles of denaturation at 95 ° C for 30 s and annealing/extension at 60 ° C for 30 s. For quantification analysis, the comparative threshold cycle (Ct) method was used. The Ct values from each gene were normalized to the Ct value of GAPDH in the same RNA samples. Relative quantification was performed using the 2^–ΔΔCt method (Schmittgen and Livak, 2008) and expressed as a fold change in arbitrary values. Primers used are as follows: • iNOS fw: […]; rev: […]. • IL-1β fw: […]; rev: […]. • IL-6 fw: […]; rev: […].
A general note: Quantitative PCR measures a nucleic acid by following its amplification.

The next series concerns the target T2, human MAOA (Homo sapiens, UniProt P21397).
T2 construct: made in house; host or cells: Pichia pastoris
T2 sequence (P21397 1-527): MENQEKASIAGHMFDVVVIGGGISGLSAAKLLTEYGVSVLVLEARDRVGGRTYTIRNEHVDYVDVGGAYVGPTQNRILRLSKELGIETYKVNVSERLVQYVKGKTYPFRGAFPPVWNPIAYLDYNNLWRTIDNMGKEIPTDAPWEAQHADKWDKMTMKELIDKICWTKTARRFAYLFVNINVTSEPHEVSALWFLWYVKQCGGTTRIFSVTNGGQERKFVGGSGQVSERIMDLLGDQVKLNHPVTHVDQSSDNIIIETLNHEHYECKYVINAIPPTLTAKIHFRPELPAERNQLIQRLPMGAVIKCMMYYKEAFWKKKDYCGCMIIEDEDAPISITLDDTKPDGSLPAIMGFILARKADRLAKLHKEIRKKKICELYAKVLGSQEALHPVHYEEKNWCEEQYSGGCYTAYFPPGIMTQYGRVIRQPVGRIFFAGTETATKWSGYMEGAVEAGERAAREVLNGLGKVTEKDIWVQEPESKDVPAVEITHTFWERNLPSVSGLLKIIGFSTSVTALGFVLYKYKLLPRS
The series can be described thus: Purified MAOA, Amplex Red/horseradish peroxidase coupled assay. The format is biochemical. The conditions noted are these: 70 nM MAOA, 1 mM kynuramine. The procedure:
as §1

A further series deals with NOX5. As to conditions: cited from earlier work.
A further series relates to NOX4. As to conditions: cited from earlier work.
In the next series the target is NOX2 (Homo sapiens, UniProt P04839). The arrangement: NOX2 was expressed as native protein in X-CGD PLB-985 cells transduced with the RD114 pseudotyped MFGS-NOX2 vector; expressed in transfected cells; host or cells: X-CGD PLB-985 cells transduced with MFGS-NOX2; isolated membranes; Cytosolic proteins made in E. coli. As to conditions: cited from earlier work.
For a further series, the system named is NOX1. As to conditions: cited from earlier work.

Regarding `C=CC(=O)N1CCC(Nc2ncnc3c2nnn3Cc2ccccc2)CC1` [Compound 7c, 1-(4-((3-Benzyl-3H-[1,2,3]triazolo[4,5-d]pyrimidin-7-yl)amino)piperidin-1-yl)prop-2-en-1-one], the “covalent binding to csNOX5 dehydrogenase active-site cysteine” value with csNOX5 dehydrogenase was “no covalent binding”. The “% INHIBITION csNOX5 DEHYDROGENASE DOMAIN” value in [1] is reported as 41.2 ± 9.7%.
Consider `O=C1c2ccccc2-c2cc(N3CCC4(CC3)OCCO4)nc3cccc1c23` [Compound M41], for which the “viability of monocytic U937 and other myeloid cancer lines” value in the series with monocytic U937 was “reduced the viability”.
As to `Clc1ncnc2c1nnn2Cc1ccccc1` [Compound 3, 3-Benzyl-7-chloro-3H-[1,2,3]triazolo[4,5-d]pyrimidine], the “% INHIBITION csNOX5 DEHYDROGENASE DOMAIN” value in [2] is 23.4 ± 4.8^b %.
Regarding `c1ccc(-c2cc(NC3CCNCC3)nc3ccccc23)cc1` [MC4876], in the series with monocytic U937, the “viability of monocytic U937 and other myeloid cancer lines” value was “reduced the viability”.
Turning to `C#CCN[C@@H]1CCc2ccccc21` [Rasagiline, reference compound], in the series on BV2 cells [3], the BV2 cell viability entry is listed as “negligible effects on cells viability”. Also, the half-maximal inhibitory concentration (IC50) was 0.7 µM with Purified MAOA and 0.014 µM with Purified MAOB. Further, in the series on BV2 cells [4], the “ROS levels in BV2 cells” value is reported as “decrease the ROS levels”.
Turning to `c1ccc(Cn2nnc3c(Sc4nc5ccccc5o4)ncnc32)cc1` [VAS2870, 3-benzyl-7-(2-benzoxazolyl)thio-1,2,3-triazolo[4,5-d]pyrimidine, reference compound], on human MAOB, the IC50 is more than 100 µM and the “IC50 Purified MAOB” value is “ineffective; also recorded: Not detected”. Also, the “ROS levels in BV2 cells” value with BV2 cells [4] was “decrease the ROS levels”. Besides, the “effects on iNOS, IL-1β and IL-6 mRNA without inhibitor pretreatment” value in the series on BV2 cells [5] was “negligible”. In addition, on human MAOA, the IC50 was more than 100 µM and the “IC50 Purified MAOA” value was “ineffective; also recorded: Not detected”.
Take `c1ccc(Cn2nnc3c(Sc4ncco4)ncnc32)cc1` [VAS3947]: the IC50 was 39.2 µM in the series with NOX5, 30.5 µM in the series with NOX4, 5.6 µM at NOX2 and 86.8 µM in the series on NOX1.

A word on the IC50: it is the midpoint of a concentration-inhibition curve.

Values taken from article PMC11956017, “Design of Benzyl-triazolopyrimidine-Based NADPH Oxidase Inhibitors Leads to the Discovery of a Potent Dual Covalent NOX2/MAOB Inhibitor” (Journal of Medicinal Chemistry, 2025).
